Measured values: patent US20250241890A1, “1,4-DIUREAS AND 1,4-DITHIOUREAS AND USES THEREOF” (Purdue Research Foundation, priority 2024, published 2025)

Tested on: M17D-TR/αS-3K::YFP cells
Assay: α-Syn inclusion-forming neuroblastoma cell experiment (Incucyte)
Type: cell-based
Details: M17D αS-3K::YFP cells; for cell confluence: relative to DMSO vehicle
Experimental: FIG. 11. Compound 1 prevents αS inclusion formation. M17D cells expressing the inclusion-prone αS-3K::YFP fusion protein (dox-inducible) were treated with 0.1% DMSO (vehicle; “0 μM”) as well as 1.25, 2.5, 5 and 10 μM of compounds 1, 2 and 8 at t=24 hours after plating. Cells were induced with doxycycline at t=48 hours. A) Incucyte-based analysis of punctate YFP signals relative to 0.1% DMSO was done at t=96 hours (N=3 independent experiments, n=6-18 individual wells total (0 μM, n=18; 10 μM, n=6; all other concentrations, n=12). B) Same as panel A, but confluence fold changes relative to DMSO vehicle (0 μM) were plotted. C) Representative IncuCyte images of reporter cells treated with vehicle vs. 10 μM compounds 1, 2, or 8 (t=96 h), green channel. Arrows indicate αS-rich YFP-positive inclusions. Scale bar, 50 μm. All data are presented as fold-changes relative to DMSO control +/−standard deviation. One-way ANOVA, Dunnett's post-hoc test; *, p<0.05; **, p<0.01; ***, p<0.001.
Chemical and peptide source. Dimethylsulfoxide (DMSO) and thioflavin-T (ThT) were purchased from Alfa Aesar (Ward Hill, MA). Recombinant α-synuclein (α-syn) was procured from rPeptide (WatKinsville, GA). The recombinant p-tau isoform 1N4R was prepared as published previously (Fortin et al. 2021, Sui et al. 2015, Liu et al. 2020). Concerning the preparation of tau 0N4R, a bacterial expression plasmid consisting of the vector pET30a carrying a cDNA encoding the human Tau 0N4R isoform was a kind gift of Dr. Benjamin Wolozin (Boston University). E. coli stock (Rosetta BL21 E. coli (CamR) containing pET30a [0N4R tau wt] (KanR)) was grown in LB medium supplemented with kanamycin (50 μg/mL) and chloramphenicol (50 μg/mL). Protein over-expression was induced by the addition of 1 mM IPTG for ˜18 hours at 37° C., and cells were pelleted by centrifugation at 6,000 g for 15 minutes at 4° C. The cells were resuspended in lysis buffer (10 mM Hepes, pH 7.4, 50 mM NaCl, 1 mM MgCl2, 1 mM PMSF, 1× PIC, and 0.5 mM DTT) and lysed by sonication at 30 seconds “On” and 1 minute “Off” at ˜30-45% power for ˜3-5 minutes. Lysate was centrifuged at 10,000 rpm for 10 minutes at 4° C., and supernatant was transferred with 7.8 ml (total) of 3M NaCl. The lysate was incubated for 10 minutes in 80° C. water bath, then cooled for 10 minutes in an ice bath. The lysate was centrifuged at 10,000 rpm at 4° C. for 10 minutes, and the supernatant was transferred to a new tube. The supernatant was dialyzed overnight against cation exchange buffer (50 mM MES, […], 1 mM DTT, pH 6.0). The dialysate was loaded onto a HiPrep SP HP column, and proteins were eluted with a linear gradient ranging from 50 mM to 1 M NaCl. General Characterizations. ^1H and ^13C {1H} NMR spectra were recorded using a 500 MHz Bruker instrument working at a frequency of 500 MHz for ^1H and at 126 MHz for ^13C. Chemical shifts are reported in ppm using residual solvent resonances as internal reference (δ 2.50 and δ 39.51 for ^1H and ^13C in DMSO-d6, respectively). ^1H NMR data are reported as follows. b=broad, s=singlet, d=doublet, t=triplet, q=quartet, and m=multiplet. Coupling constants are given in hertz. The purity of all compounds and synthetic intermediates was judged to be 95% or better based on ^1H NMR. […] Thioflavin fluorescence assays. Thioflavin fluorescence assays were used to monitor fibril formation of commercial recombinant α-syn at a final concentration of 2 μM and treated with control DMSO and different compounds. […]

Row | SMILES | cell confluence (1.25 to 10 μM) | α-syn inclusion formation (punctate YFP signals relative to DMSO) (5 and 10 μM, t=96 hours) | numbers of α-syn inclusions (1.25 to 10 μM, t=96 hours)
1 | O=C(Nc1ccc(NC(=O)Nc2cccc3[nH]ccc23)cc1)Nc1cccc2[nH]ccc12 [Compound 1, 3-(1H-indol-4-yl)-1-(4-{[(1H-indol-4-yl)carbamoyl]amino}phenyl)urea] | did not exhibit changes in the cell confluence | – | –
2 | S=C(Nc1ccc(NC(=S)Nc2cccc3[nH]ccc23)cc1)Nc1cccc2[nH]ccc12 [Compound 2, 3-(1H-indol-4-yl)-1-(4-{[(1H-indol-4-yl)carbamothioyl]amino}phenyl)thiourea] | did not exhibit changes in the cell confluence | increased the inclusions | –
3 | S=C(Nc1ccc(NC(=S)Nc2cccc3cc[nH]c23)cc1)Nc1cccc2cc[nH]c12 [Compound 8, 3-(1H-indol-7-yl)-1-(4-{[(1H-indol-7-yl)carbamothioyl]amino}phenyl)thiourea] | did not exhibit changes in the cell confluence | – | very minimal changes in the numbers of inclusions
